Laboratory results as given in patent publication US9084719B2, “Compositions and method for treating infection in cattle and swine” (Intervet Inc., priority 2003, dated 2015).
Like-named read-outs stand apart in the source and are kept apart here.

Test: Plasma levels of florfenicol / pharmacokinetic analysis in cattle after subcutaneous administration
Assay type: in vivo
Conditions: bovine, sc, 40 mg/kg, subcutaneous florfenicol solution, 40 mg per kg of body weight
Procedure: Twenty-four head of cattle were used in the study as described below and were administered the formulations of the present invention. Serial blood samples were drawn at time 0 prior to dosing, then at 0.5, 1, 3, 6, 9, 12, 24, 36, 48, 60 and 72 hours post injection. The animals received one of the following treatment regimens.
The study was carried out in bovines of approximately 6 months of age or more that weigh about 125 kg or more. Selection was based on health status appearance, tractability and body weight. […] Animals that had received medication or have participated in another study in the previous 14 days were excluded from this study.
Plasma Levels of florfenicol were taken as follows: Approximately 10 mL of blood was collected from each calf by jugular venipuncture into a Vacutainer® tube containing sodium EDTA and processed for plasma.
Pharmacokinetic Analysis was carried out as follows: Plasma concentrations of florfenicol was reported in the appropriate units (i.e. μg/ml or ng/mL). Plasma florfenicol concentration versus time data was graphically presented for each individual animal, and as mean concentrations for the overall sample population.

Cmax (FIG. 1, six cattle, read-out: Mean peak concentration (Cmax)): 6370 ng/mL
Tmax (FIG. 1, six cattle, read-out: Mean time to peak concentration (Tmax)): 5.5 h
Cmax (FIG. 1, six cattle, read-out: Range of peak concentration (Cmax)): 5080 to 7000 ng/mL
Tmax (FIG. 1, six cattle, read-out: Range of time to peak concentration (Tmax)): 3 to 6 h
Cmax (FIG. 2, six cattle, read-out: Mean peak concentration (Cmax)): 4250 ng/mL
Tmax (FIG. 2, six cattle, read-out: Mean time to peak concentration (Tmax)): 3.67 h
Cmax (FIG. 2, six cattle, read-out: Range of peak concentration (Cmax)): 3460 to 5000 ng/mL
Tmax (FIG. 2, six cattle, read-out: Range of time to peak concentration (Tmax)): 1 to 9 h
SMILES: CS(=O)(=O)c1ccc([C@@H](O)[C@@H](CF)NC(=O)C(Cl)Cl)cc1 [florfenicol, D-(threo)-1-p-methylsulfonyl phenyl-2-dichloroacetamido-3-fluoro-1-propanol]
